Consider two compounds from PMC11441106 (Journal of medicinal chemistry, 2024).

In general, inhibition refers to the relative decrease from the control value, in per cent. As a reminder, the Vd is a proportionality between amount in the body and measured concentration, not a real space.

Structures are written as SMILES.

In one data set the target is T1, α 1D (Homo sapiens, UniProt P25100).
T1 sequence (P25100 1-572): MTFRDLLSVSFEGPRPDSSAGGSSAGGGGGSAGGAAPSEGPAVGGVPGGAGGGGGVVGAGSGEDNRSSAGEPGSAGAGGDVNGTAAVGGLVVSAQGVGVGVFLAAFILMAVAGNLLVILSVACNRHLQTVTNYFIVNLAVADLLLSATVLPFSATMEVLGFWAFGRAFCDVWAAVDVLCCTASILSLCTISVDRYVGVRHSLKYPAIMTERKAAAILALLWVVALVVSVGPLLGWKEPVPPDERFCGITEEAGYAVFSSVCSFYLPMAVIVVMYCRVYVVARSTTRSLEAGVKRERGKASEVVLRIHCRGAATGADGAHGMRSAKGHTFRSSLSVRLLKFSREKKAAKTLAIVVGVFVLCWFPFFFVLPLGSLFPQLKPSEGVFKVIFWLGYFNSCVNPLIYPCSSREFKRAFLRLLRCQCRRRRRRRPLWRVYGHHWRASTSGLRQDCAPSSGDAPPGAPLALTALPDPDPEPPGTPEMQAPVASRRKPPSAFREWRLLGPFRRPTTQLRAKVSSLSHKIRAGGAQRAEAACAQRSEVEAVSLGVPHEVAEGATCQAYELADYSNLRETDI
Kind of data set: NIMH-PDSP broad-panel counter screening. Particulars: read-out: % inhibition (10 μM).

A further data set can be described thus: in vivo. Particulars: rat.
Another data set concerns GABAA. In words: NIMH-PDSP broad-panel counter screening. For orientation: Counterscreens check selectivity or assay interference.
A further data set has as its target hERG (Homo sapiens, UniProt Q12809). The data set is classed as binding.
The target of the next data set is D1R (Homo sapiens, UniProt P21728). In words: Tango β-arrestin recruitment at D1R. The format is cell-based. Particulars: Tango assay. In general terms: Activated receptors often draw arrestin, which recruitment assays turn into a signal.
Sequence of D1R (P21728 whole entry): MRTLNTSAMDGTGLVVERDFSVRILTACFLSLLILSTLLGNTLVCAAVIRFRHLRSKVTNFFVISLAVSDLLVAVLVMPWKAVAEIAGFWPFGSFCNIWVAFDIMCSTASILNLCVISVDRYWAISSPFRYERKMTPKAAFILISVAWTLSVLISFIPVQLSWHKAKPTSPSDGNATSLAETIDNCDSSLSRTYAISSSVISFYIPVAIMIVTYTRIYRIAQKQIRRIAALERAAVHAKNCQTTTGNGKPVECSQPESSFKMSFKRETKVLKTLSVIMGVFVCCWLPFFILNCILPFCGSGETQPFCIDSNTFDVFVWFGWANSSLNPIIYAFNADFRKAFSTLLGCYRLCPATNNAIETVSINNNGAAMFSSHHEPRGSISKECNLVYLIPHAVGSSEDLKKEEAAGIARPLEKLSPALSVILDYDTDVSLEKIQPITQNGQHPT

Sequence of hERG (Q12809 whole entry): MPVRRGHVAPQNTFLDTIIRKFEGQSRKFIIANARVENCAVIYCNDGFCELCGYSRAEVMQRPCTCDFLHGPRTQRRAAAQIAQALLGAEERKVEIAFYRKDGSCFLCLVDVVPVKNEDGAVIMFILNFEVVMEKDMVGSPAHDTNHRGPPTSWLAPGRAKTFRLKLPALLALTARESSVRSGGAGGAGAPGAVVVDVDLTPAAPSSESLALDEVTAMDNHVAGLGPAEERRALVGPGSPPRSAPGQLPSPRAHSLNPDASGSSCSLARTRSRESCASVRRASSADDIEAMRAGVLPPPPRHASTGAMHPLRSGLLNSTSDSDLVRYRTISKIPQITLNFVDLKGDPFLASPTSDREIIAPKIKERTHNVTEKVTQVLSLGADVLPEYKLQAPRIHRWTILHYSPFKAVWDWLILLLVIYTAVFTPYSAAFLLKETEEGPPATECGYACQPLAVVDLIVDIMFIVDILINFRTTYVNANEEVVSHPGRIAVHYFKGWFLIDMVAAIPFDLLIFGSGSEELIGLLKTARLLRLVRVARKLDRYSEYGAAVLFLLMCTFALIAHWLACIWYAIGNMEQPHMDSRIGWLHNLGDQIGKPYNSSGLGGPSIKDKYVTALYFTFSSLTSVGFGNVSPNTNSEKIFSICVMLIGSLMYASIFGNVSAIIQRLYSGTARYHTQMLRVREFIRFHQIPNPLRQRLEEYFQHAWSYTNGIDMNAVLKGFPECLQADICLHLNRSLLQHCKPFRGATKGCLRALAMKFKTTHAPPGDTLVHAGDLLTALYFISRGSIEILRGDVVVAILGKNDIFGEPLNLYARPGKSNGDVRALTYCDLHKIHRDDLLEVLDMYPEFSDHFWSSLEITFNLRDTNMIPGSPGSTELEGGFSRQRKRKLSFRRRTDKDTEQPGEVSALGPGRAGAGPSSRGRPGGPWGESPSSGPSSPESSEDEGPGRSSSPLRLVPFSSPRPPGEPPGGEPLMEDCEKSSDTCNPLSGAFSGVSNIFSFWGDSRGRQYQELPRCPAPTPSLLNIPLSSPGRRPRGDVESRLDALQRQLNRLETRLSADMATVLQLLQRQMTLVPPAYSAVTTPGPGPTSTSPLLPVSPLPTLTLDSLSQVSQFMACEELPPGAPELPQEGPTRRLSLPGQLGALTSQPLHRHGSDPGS

On to `Cc1c(Nc2cc(Cc3cccc(C(F)(F)F)c3)ccn2)cccc1C(=O)NCCO` [Compound 15b, N-(2-Hydroxyethyl)-2-methyl-3-((4-(3-(trifluoromethyl)benzyl)-pyridin-2-yl)amino)benzamide], for which the inhibition at 10 µM on α 1D was -10.5%. The volume of distribution (Vd) in the data set “in vivo” (male, Sprague-Dawley, plasma, iv, 10 mg/kg) was 1.85 L/kg. Also, in “in vivo” (in vivo, po, 20 mg/kg), the CL stood at 103 ± 35 mL/min/kg. For the same compound, the “% inhibition (10 μM)” value with GABAA is listed as −17.94%. In addition, the “hERG inhibition or binding affinity” value at hERG is on record as “did not show inhibition or binding affinity”.
Regarding `O=C(NCCO)c1cccc2c1CCN2c1cc(Cc2cccc(C(F)(F)F)c2)ccn1` [Compound 4a], the “β-arrestin recruitment response at D1R” value on D1R was “no response”.
